Assay results taken from ChEMBL document CHEMBL5230129, “Antibacterial activities with the structure-activity relationship of coumarin derivatives” (2020).
Values after ≈ are worked out from the molar mass of the structure shown. Values belong to the compound of their own block, whether it stands above or below them.

Columns and labels:
Type in all cases: functional
Bacillus subtilis [1] = assay: Antibacterial activity against Bacillus subtilis assessed as zone of inhibition incubated for 3 days by cup plate agar diffusion assay; details: time 3 day
Pseudomonas aeruginosa [2] = assay: Antibacterial activity against Pseudomonas aeruginosa assessed as zone of inhibition incubated for 3 days by cup plate agar diffusion assay; details: time 3 day
Staphylococcus aureus [3] = assay: Antibacterial activity against Staphylococcus aureus assessed as zone of inhibition incubated for 3 days by cup plate agar diffusion assay; details: time 3 day
Escherichia coli [4] = assay: Antibacterial activity against Escherichia coli assessed as zone of inhibition incubated for 3 days by cup plate agar diffusion assay; details: time 3 day
Staphylococcus aureus [5] = assay: Antibacterial activity against Staphylococcus aureus assessed as inhibition of bacterial growth by broth dilution assay
Bacillus subtilis [6] = assay: Antibacterial activity against Bacillus subtilis assessed as inhibition of bacterial growth by broth dilution assay
Klebsiella pneumoniae = assay: Antibacterial activity against Klebsiella pneumoniae assessed as zone of inhibition incubated for 24 hrs by disk diffusion assay
Escherichia coli [7] = assay: Antibacterial activity against Escherichia coli MTCC 40 assessed as zone of inhibition incubated for 24 hrs by well-plate method
Escherichia coli [8] = assay: Antibacterial activity against Escherichia coli SM1411 assessed as inhibition of bacterial growth incubated for 24 hrs by two-fold serial dilution method
Escherichia coli [9] = assay: Antibacterial activity against Escherichia coli 1411 assessed as inhibition of bacterial growth incubated for 24 hrs by two-fold serial dilution method
Escherichia coli [10] = assay: Antibacterial activity against Escherichia coli assessed as inhibition of bacterial growth relative to control
Bacillus subtilis [11] = assay: Antibacterial activity against Bacillus subtilis assessed as inhibition of bacterial growth relative to control
Bacillus = assay: Antibacterial activity against Bacillus assessed as inhibition of bacterial growth by broth micro dilution assay
Escherichia coli [12] = assay: Antibacterial activity against Escherichia coli assessed as inhibition of bacterial growth by broth micro dilution assay
Staphylococcus aureus [13] = assay: Antibacterial activity against Staphylococcus aureus assessed as inhibition of bacterial growth by broth micro dilution assay
Pseudomonas fluorescens = assay: Antibacterial activity against Pseudomonas fluorescens NCIM 2173 assessed as inhibition of bacterial growth incubated for 24 hrs by serial twofold dilution assay
[14] = test system: Sphingomonas paucimobilis; assay: Antibacterial activity against Flavobacterium devorans ATCC 10829 assessed as inhibition of bacterial growth incubated for 24 hrs by serial twofold dilution assay
Escherichia coli [15] = assay: Antibacterial activity against Escherichia coli NCIM 2256 assessed as inhibition of bacterial growth incubated for 24 hrs by serial twofold dilution assay
Pseudomonas = assay: Antibacterial activity against Pseudomonas assessed as zone of inhibition
Pseudomonas aeruginosa [16] = assay: Antibacterial activity against Pseudomonas aeruginosa ATCC 27853 assessed as zone of inhibition incubated for 24 hrs by paper disk method
Escherichia coli [17] = assay: Antibacterial activity against Escherichia coli ATCC 25922 assessed as zone of inhibition incubated for 24 hrs by paper disk method
Enterococcus faecalis = assay: Antibacterial activity against Enterococcus faecalis PCM 2673 assessed as inhibition of bacterial growth incubated for 24 hrs by microbroth dilution assay
Escherichia coli [18] = assay: Antibacterial activity against Escherichia coli ATCC 8739 assessed as inhibition of bacterial growth incubated for 24 hrs by microbroth dilution assay

Compound: Cc1cc(=O)oc2c(C(=O)/C=C/c3ccc(F)cc3)c(OCc3cnnn3Cc3ccccc3)ccc12
inhibition zone (IZ) (Bacillus subtilis [1]): 11 mm
inhibition zone (IZ) (Pseudomonas aeruginosa [2]): 10 mm
inhibition zone (IZ) (Staphylococcus aureus [3]): 27 mm
inhibition zone (IZ) (Escherichia coli [4]): 27 mm

MIC (Staphylococcus aureus [5]): 0.2 µg/mL (≈ 0.511 µM)
MIC (Bacillus subtilis [6]): 6.25 µg/mL (≈ 16 µM)
Compound: O=c1oc2ccc(Br)cc2cc1-c1cc2c(ccc3ccccc32)o1

Compound: Cc1cc(=O)oc2cc(OCc3nnc(Nc4ccc(Cl)cc4)s3)ccc12
inhibition zone (IZ) (Klebsiella pneumoniae): 15 mm

Compound: CC1(C)S[C@@H]2[C@H](NC(=O)[C@H](N)c3ccc(O)cc3)C(=O)N2[C@H]1C(=O)O [AMOXICILLIN]
inhibition zone (IZ) (Bacillus subtilis [1]): 12 mm
inhibition zone (IZ) (Pseudomonas aeruginosa [2]): 10 mm
inhibition zone (IZ) (Staphylococcus aureus [3]): 30 mm
inhibition zone (IZ) (Escherichia coli [4]): 30 mm

Compound: O=c1oc2ccc3ccccc3c2cc1-c1csc(N/N=C/c2cn(-c3ccccc3)nc2-c2cc3ccccc3oc2=O)n1
inhibition zone (IZ) (Escherichia coli [7]): 21 mm

MIC (Escherichia coli [8]): 18 µg/mL (≈ 59.1 µM)
MIC (Escherichia coli [9]): 16 µg/mL (≈ 52.6 µM)
Compound: Cc1ccc(C2CC(c3cc4ccccc4oc3=O)=NN2)cc1 (stereo unspecified)

Compound: COC(=O)c1nnn(CC(=O)c2cc3cc(Br)ccc3oc2=O)c1C(=O)OC
inhibition (INH) (Escherichia coli [10]): 88.8%
inhibition (INH) (Bacillus subtilis [11]): 82.2%

MIC (Bacillus): 0.8 µg/mL (≈ 3.26 µM)
MIC (Escherichia coli [12]): 0.8 µg/mL (≈ 3.26 µM)
MIC (Staphylococcus aureus [13]): 1.6 µg/mL (≈ 6.52 µM)
Compound: Cc1ccc2oc(=O)cc(C3NNC(=O)N3)c2c1 (stereo unspecified)

MIC (Escherichia coli [8]): 14 µg/mL (≈ 41.6 µM)
MIC (Escherichia coli [9]): 14 µg/mL (≈ 41.6 µM)
Compound: COc1cc(C2CC(c3cc4ccccc4oc3=O)=NN2)ccc1O (stereo unspecified)

MIC (Pseudomonas fluorescens): 2 µg/mL (≈ 5.1 µM)
MIC [14]: 16 µg/mL (≈ 40.8 µM)
MIC (Escherichia coli [15]): 2 µg/mL (≈ 5.1 µM)
Compound: Cc1cc(OCc2cn(Cc3ccc([N+](=O)[O-])cc3)nn2)cc2oc(=O)ccc12

Compound: Cc1ccc2oc(=O)cc(-c3nc4ccccc4[nH]3)c2c1
inhibition zone (IZ) (Pseudomonas): 4.1 mm

Compound: O=c1cc(-c2nc3ccccc3[nH]2)c2ccc3ccccc3c2o1
inhibition zone (IZ) (Pseudomonas): 4.2 mm

Compound: C[C@@H](NC(=O)COc1cc(=O)oc2ccccc12)c1cccc2ccccc12
inhibition zone (IZ) (Pseudomonas aeruginosa [16]): 14 mm
inhibition zone (IZ) (Escherichia coli [17]): 12 mm

Compound: Cc1ccc2c(-c3nc4ccccc4[nH]3)cc(=O)oc2c1
inhibition zone (IZ) (Pseudomonas): 4.1 mm

Compound: Cc1cc(=O)oc2c(C(=O)/C=C/c3ccccc3)c(OCc3cnnn3Cc3ccccc3)ccc12
inhibition zone (IZ) (Bacillus subtilis [1]): 8 mm
inhibition zone (IZ) (Pseudomonas aeruginosa [2]): 4 mm
inhibition zone (IZ) (Staphylococcus aureus [3]): 11 mm
inhibition zone (IZ) (Escherichia coli [4]): 10 mm

Compound: O=C(COc1cc(=O)oc2ccccc12)NC1CCCCCC1
inhibition zone (IZ) (Pseudomonas aeruginosa [16]): 10 mm
inhibition zone (IZ) (Escherichia coli [17]): 11 mm

Compound: O=c1cc(-c2nc3ccccc3[nH]2)c2cc(Br)ccc2o1
inhibition zone (IZ) (Pseudomonas): 4.8 mm

MIC (Bacillus): 6.25 µg/mL (≈ 23.5 µM)
MIC (Escherichia coli [12]): 25 µg/mL (≈ 94.1 µM)
MIC (Staphylococcus aureus [13]): 25 µg/mL (≈ 94.1 µM)
Compound: O=C1NNC(c2cc(=O)oc3ccc(Cl)cc23)N1 (stereo unspecified)

Compound: Cc1cc(=O)oc2cc(OCc3nnc(Nc4ccc(Br)cc4)s3)ccc12
inhibition zone (IZ) (Klebsiella pneumoniae): 16 mm

Compound: COc1ccc(Nc2nnc(COc3ccc4c(C)cc(=O)oc4c3)s2)cc1
inhibition zone (IZ) (Klebsiella pneumoniae): 15 mm

MIC (Staphylococcus aureus [5]): 3.12 µg/mL (≈ 8.78 µM)
MIC (Bacillus subtilis [6]): 0.2 µg/mL (≈ 0.563 µM)
Compound: Cc1ccc2cc(-c3cc4cc(Br)ccc4oc3=O)oc2c1

MIC (Enterococcus faecalis): 12.5 µg/mL (≈ 35.8 µM)
MIC (Escherichia coli [18]): 1600 µg/mL (≈ 4580 µM)
Compound: COc1ccccc1-n1cc(COc2cc(=O)oc3ccccc23)nn1

MIC (Enterococcus faecalis): 50 µg/mL (≈ 157 µM)
MIC (Escherichia coli [18]): 1600 µg/mL (≈ 5010 µM)
Compound: O=c1cc(OCc2cn(-c3ccccc3)nn2)c2ccccc2o1

MIC (Bacillus): 0.8 µg/mL (≈ 3.06 µM)
MIC (Escherichia coli [12]): 0.8 µg/mL (≈ 3.06 µM)
MIC (Staphylococcus aureus [13]): 0.8 µg/mL (≈ 3.06 µM)
Compound: COc1ccc2oc(=O)cc(C3NNC(=O)N3)c2c1 (stereo unspecified)

Compound: COC(=O)c1nnn(CC(=O)c2cc3c(ccc4ccccc43)oc2=O)c1C(=O)OC
inhibition (INH) (Escherichia coli [10]): 83.3%
inhibition (INH) (Bacillus subtilis [11]): 83.3%

Compound: COC(=O)c1nnn(CC(=O)c2cc3cc(C)ccc3oc2=O)c1C(=O)OC
inhibition (INH) (Escherichia coli [10]): 83.3%
inhibition (INH) (Bacillus subtilis [11]): 83.3%

Compound: COC(=O)c1nnn(CC(=O)c2cc3cc(Cl)ccc3oc2=O)c1C(=O)OC
inhibition (INH) (Escherichia coli [10]): 83.3%
inhibition (INH) (Bacillus subtilis [11]): 83.3%

MIC (Staphylococcus aureus [5]): 0.2 µg/mL (≈ 0.724 µM)
MIC (Bacillus subtilis [6]): 0.2 µg/mL (≈ 0.724 µM)
Compound: Cc1ccc2cc(-c3cc4ccccc4oc3=O)oc2c1

Compound: COc1ccc2oc(=O)cc(-c3nc4ccccc4[nH]3)c2c1
inhibition zone (IZ) (Pseudomonas): 4 mm

Compound: O=C(COc1cc(=O)oc2ccccc12)N(c1ccccc1)c1ccccc1
inhibition zone (IZ) (Pseudomonas aeruginosa [16]): 12 mm
inhibition zone (IZ) (Escherichia coli [17]): 10 mm
